Data: patent US20040023994A1 (priority 2002, published 2004)
Marks after values point to notes of the source that are not given here.

What was measured:
Leukemia cell lines [1] = assay: cells; conditions: for GI50: read-out: median GI50; for CC50: read-out: median LC50
Breast cell lines [2] = assay: cells; conditions: for GI50: read-out: median GI50; for CC50: read-out: median LC50
Renal cell lines [3] = test system: Renal cell lines
NSCL cell lines [4] = assay: cells; conditions: for GI50: read-out: median GI50; for CC50: read-out: median LC50
Melanoma cell lines [5] = assay: cells; conditions: for GI50: read-out: median GI50; for CC50: read-out: median LC50
Colon cell lines [6] = test system: Colon cell lines
Colon cell lines [7] = assay: cells; conditions: for GI50: read-out: median GI50; for CC50: read-out: median LC50
Renal cell lines [8] = assay: cells; conditions: for GI50: read-out: median GI50; for CC50: read-out: median LC50
Prostate cell lines [9] = assay: cells; conditions: for GI50: read-out: median GI50; for CC50: read-out: median LC50
Ovarian cell lines = assay: NCI anticancer screen, by tissue type; conditions: for median TGI: Ovarian; for GI50: read-out: median GI50; for CC50: read-out: median LC50
Breast cell lines [10] = test system: Breast cell lines
[11] = test system: all the cell lines included in the screen; assay: cells; conditions: for median TGI: all cell lines of the NCI screen; for GI50: read-out: median GI50; for CC50: read-out: median LC50
Procedure: cis-AVTP and trans-AVTG were tested in National Cancer Institute's (NCI) 60 cell lines derived from leukemia, melanoma, lung, kidney cancers. Most chemotherapeutic agents currently nd 6-TG, have been tested in this screen and a database he National Institutes of Health. The NCI assigned s-AVTP, and number NSC-722289 to trans-AVTG. tocol used for the cytotoxicity assessment in the NCI e from the National Institutes of Health. Briefly, tumor ma, lung, colon, brain, ovary, breast, prostate, and um containing 5% fetal bovine serum and 2 mM L-glutamine re plated in a 100 μL volume into 96 well microtiter 37° C. in humidified atmosphere supplemented with 5% ach cell line were fixed with trichloroacetic acid for f drug addition (Tz). The drugs, as 400-fold concentrated uted to twice the final maximum test concentration with entamicin. Additional four 10-fold dilutions were made us control. Aliquots (100 μl) of the drug solutions were 100 μl of medium, resulting in the required final drug the plates were incubated at 37° C. in humidified for additional 48 h. The assay was terminated by the w/v) trichloroacetic acid for adherent and suspension minutes at 4° C. The supernatant was discarded, the and air dried. A 100 μl aliquot of 0.4% (w/v) sulforhodamine B (SRB) solution in 1% acetic acid was added to each well, and the plates incubated for 10 minutes at room temperature. After staining, unbound dye was removed by washing five times with 1% acetic acid and the plates air dried. Bound stain was solubilized with 10 mM trizma base, and the absorbance read on a plate reader at a wavelength of 515 nm.
By using time zero (Tz), control growth (C), and test growth in the presence of drug at the five concentration levels (Ti), the percentage growth was calculated at each of the drug concentration levels. Percentage growth inhibition was calculated as:
[(Ti−Tz)/(C−Tz)]×100 for concentrations for which Ti>/=Tz
[(Ti−Tz)/Tz]×100 for concentrations for which Ti<Tz.
Three dose response parameters were calculated for each experimental agent. […] The TGI, the drug concentration resulting in total growth inhibition was calculated from Ti=Tz. The LC50 (the concentration of drug resulting in a 50% reduction in the measured protein at the end of the drug treatment as compared to that at the beginning) indicating a net loss of cells following treatment was calculated from [(Ti−Tz)/Tz]×100=−50. Values were calculated for each of these three parameters if the level of activity is reached; however, if the effect was not reached or was exceeded, the value for that parameter is expressed as greater or less than the maximum or minimum concentration tested.

A-498 cells = assay: MTT cytotoxicity assay; type: cell-based, human; conditions: Homo sapiens, A498
Procedure: (§1) Preliminary studies examining the in vitro cytotoxicity of cis-AVTP and trans-AVTG as compared to the parent drugs, were carried out using the 3-[4,5-dimethylthiazol-2-yl]-2,5-diphenyl tetrazolium bromide (MTT) cytotoxicity assay.

ACHN cells = assay: MTT cytotoxicity assay; type: cell-based, human; conditions: Homo sapiens
Procedure: as §1

Leukemia cell lines [12] = conditions: Leukemia
CNS cell lines [13] = test system: CNS cell lines
CNS cell lines [14] = assay: cells; conditions: Homo sapiens; for GI50: read-out: median GI50; for CC50: read-out: median LC50
Melanoma cell lines [15] = test system: Melanoma cell lines
Prostate cell lines [16] = test system: Prostate cell lines
NSCL cell lines [17] = test system: NSCL cell lines

For `Nc1nc2nc[nH]c2c(=S)[nH]1` [6-TG, 6-thioguanine], the GI50 (Leukemia cell lines [1]) was 0.33 µM, the CC50 (Leukemia cell lines [1]) was > 100 µM and the GI50 (Breast cell lines [2]) was 1.48 µM. For the same compound, the CC50 (Breast cell lines [2]) was > 100 µM, the “median TGI” value (Renal cell lines [3]) was 89.2^# μM and the GI50 (NSCL cell lines [4]) was 0.91 µM. The CC50 (NSCL cell lines [4]) was > 100 µM, the GI50 (Melanoma cell lines [5]) was 1.13 µM and the CC50 (Melanoma cell lines [5]) was > 100 µM. For the same compound, the “median TGI” value (Colon cell lines [6]) was 41.2 µM, the GI50 (Colon cell lines [7]) was 1.32 µM and the CC50 (Colon cell lines [7]) was > 100 µM. For the same compound, the GI50 (Renal cell lines [8]) was 1.14 µM, the CC50 (Renal cell lines [8]) was > 100 µM and the GI50 (Prostate cell lines [9]) was 1.27 µM. For the same compound, the CC50 (Prostate cell lines [9]) was > 100 µM, the “median TGI” value (Ovarian cell lines) was 53.8 µM and the GI50 (Ovarian cell lines) was 0.7 µM. The CC50 (Ovarian cell lines) was > 100 µM, the “median TGI” value (Breast cell lines [10]) was 67.8^# μM and the “median TGI” value [11] was 41.3 µM. For the same compound, the GI50 [11] was 1.04 µM, the CC50 [11] was > 100 µM and the IC50 (A-498 cells; A-498, 72 h incubation, MTT) was 6.9 ± 4.1 µM. For the same compound, the IC50 (ACHN cells; 72 h incubation, MTT) was 2.5 ± 0.8 µM, the “median TGI” value (Leukemia cell lines [12]) was 19.4 µM and the “median TGI” value (CNS cell lines [13]) was >100 µM. The GI50 (CNS cell lines [14]) was 1.28 µM, the CC50 (CNS cell lines [14]) was > 100 µM and the “median TGI” value (Melanoma cell lines [15]) was 15.3 µM. For the same compound, the “median TGI” value (Prostate cell lines [16]) was >100 µM and the “median TGI” value (NSCL cell lines [17]) was 24.0 µM.
For `Sc1ncnc2nc[nH]c12` [6-MP, 6-mercaptopurine], the GI50 (Leukemia cell lines [1]) was 1.39 µM, the CC50 (Leukemia cell lines [1]) was > 100 µM and the GI50 (Breast cell lines [2]) was 9.42 µM. For the same compound, the CC50 (Breast cell lines [2]) was > 100 µM, the “median TGI” value (Renal cell lines [3]) was >100 µM and the GI50 (NSCL cell lines [4]) was 3.74 µM. The CC50 (NSCL cell lines [4]) was > 100 µM, the GI50 (Melanoma cell lines [5]) was 5.04 µM and the CC50 (Melanoma cell lines [5]) was > 100 µM. The “median TGI” value (Colon cell lines [6]) was >100 µM, the GI50 (Colon cell lines [7]) was 4.53 µM and the CC50 (Colon cell lines [7]) was > 100 µM. For the same compound, the GI50 (Renal cell lines [8]) was 4.33 µM, the CC50 (Renal cell lines [8]) was > 100 µM and the GI50 (Prostate cell lines [9]) was 2.77 µM. For the same compound, the CC50 (Prostate cell lines [9]) was > 100 µM, the “median TGI” value (Ovarian cell lines) was >100 µM and the GI50 (Ovarian cell lines) was 4.77 µM. For the same compound, the CC50 (Ovarian cell lines) was > 100 µM, the “median TGI” value (Breast cell lines [10]) was >100 µM and the “median TGI” value [11] was >100 µM. For the same compound, the GI50 [11] was 3.97 µM, the CC50 [11] was > 100 µM and the IC50 (A-498 cells; A-498, 72 h incubation, MTT) was 60.6 ± 25.5 µM. For the same compound, the IC50 (A-498 cells; A-498, 96 h drug incubation) was 14.9 ± 6.7 µM, the IC50 (ACHN cells; 48 h drug incubation) was 44.8 ± 5 µM and the IC50 (ACHN cells; 72 h incubation, MTT) was 6.3 ± 1.9 µM. The IC50 (ACHN cells; 96 h drug incubation) was 0.9 ± 0.3 µM, the “median TGI” value (Leukemia cell lines [12]) was >100 µM and the “median TGI” value (CNS cell lines [13]) was >100 µM. The GI50 (CNS cell lines [14]) was 6.64 µM, the CC50 (CNS cell lines [14]) was > 100 µM and the “median TGI” value (Melanoma cell lines [15]) was >100 µM. The “median TGI” value (Prostate cell lines [16]) was >100 µM and the “median TGI” value (NSCL cell lines [17]) was >100 µM.
